In ChEMBL document CHEMBL3045195, “Comparison of the activity of non-steroidal ecdysone agonists between dipteran and lepidopteran insects, using cell-based EcR reporter assays” (Pest Manag Sci, 2010):
Calls of active or inactive are those of the source. The calls are words filed in the database; no cut-off is given here.

How the values were obtained:
[1] = target: T1, Ecdysone receptor (Drosophila melanogaster) (UniProt P34021+P20153); assay: Agonist activity at ecdysone receptor in Drosophila melanogaster S2 cells at 5 uM after 24 hr by luciferase reporter gene assay relative to 20-hydroxyecdysone; format: cell-based
Ecdysone receptor [2] = target: T2, Ecdysone receptor (Drosophila melanogaster, UniProt P20153+P34021); assay: Agonist activity at ecdysone receptor in Drosophila melanogaster S2 cells after 24 hr by luciferase reporter gene assay; format: cell-based
T2 sequence (P34021 whole entry): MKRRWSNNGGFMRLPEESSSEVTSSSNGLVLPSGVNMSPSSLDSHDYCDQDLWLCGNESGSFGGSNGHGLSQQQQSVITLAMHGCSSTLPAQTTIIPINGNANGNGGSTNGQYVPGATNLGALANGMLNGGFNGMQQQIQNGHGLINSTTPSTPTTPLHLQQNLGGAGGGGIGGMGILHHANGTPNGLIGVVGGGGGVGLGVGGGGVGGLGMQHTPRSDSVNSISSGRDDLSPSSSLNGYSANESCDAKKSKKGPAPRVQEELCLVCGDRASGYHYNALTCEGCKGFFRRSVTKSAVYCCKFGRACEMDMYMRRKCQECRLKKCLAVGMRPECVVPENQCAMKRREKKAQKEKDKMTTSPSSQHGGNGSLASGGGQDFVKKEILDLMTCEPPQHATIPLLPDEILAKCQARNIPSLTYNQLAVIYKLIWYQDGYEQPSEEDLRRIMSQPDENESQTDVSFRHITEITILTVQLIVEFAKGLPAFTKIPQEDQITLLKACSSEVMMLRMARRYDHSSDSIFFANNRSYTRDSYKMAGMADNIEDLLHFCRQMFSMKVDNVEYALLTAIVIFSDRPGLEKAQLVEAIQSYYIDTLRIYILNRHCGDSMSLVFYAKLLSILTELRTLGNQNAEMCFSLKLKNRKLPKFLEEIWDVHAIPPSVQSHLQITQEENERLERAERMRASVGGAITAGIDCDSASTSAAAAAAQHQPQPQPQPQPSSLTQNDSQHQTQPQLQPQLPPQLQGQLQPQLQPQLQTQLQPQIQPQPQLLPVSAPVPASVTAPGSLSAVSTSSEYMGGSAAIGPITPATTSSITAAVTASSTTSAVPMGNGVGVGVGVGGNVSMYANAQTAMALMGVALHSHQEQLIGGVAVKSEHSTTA
T2 sequence (P20153 whole entry): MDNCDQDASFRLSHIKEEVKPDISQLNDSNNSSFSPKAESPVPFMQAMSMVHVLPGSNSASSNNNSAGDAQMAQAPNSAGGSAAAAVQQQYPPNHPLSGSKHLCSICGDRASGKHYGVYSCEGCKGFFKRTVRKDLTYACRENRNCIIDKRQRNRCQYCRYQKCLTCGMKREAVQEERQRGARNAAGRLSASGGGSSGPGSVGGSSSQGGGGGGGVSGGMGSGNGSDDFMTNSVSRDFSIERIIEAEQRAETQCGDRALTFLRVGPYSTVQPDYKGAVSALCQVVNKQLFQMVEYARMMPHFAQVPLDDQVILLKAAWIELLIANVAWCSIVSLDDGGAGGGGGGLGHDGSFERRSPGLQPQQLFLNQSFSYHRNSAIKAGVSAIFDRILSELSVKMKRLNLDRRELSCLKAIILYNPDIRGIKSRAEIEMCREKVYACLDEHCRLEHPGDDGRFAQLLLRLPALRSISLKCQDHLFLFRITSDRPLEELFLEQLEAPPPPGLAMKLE

[3] = target: T1, Ecdysone receptor (Drosophila melanogaster); assay: Agonist activity at ecdysone receptor in Drosophila melanogaster Kc cells at 10 uM after 24 hr by luciferase reporter gene assay relative to 20-hydroxyecdysone
Ecdysone receptor [4] = target: T2, Ecdysone receptor; assay: (§1) Agonist activity at ecdysone receptor in Drosophila melanogaster Kc cells after 24 hr by luciferase reporter gene assay
Ecdysone receptor [5] = target: T3, Ecdysone receptor (Bombyx mori, UniProt P49881); assay: (§2) Agonist activity at ecdysone receptor in Bombyx mori Bm5 cells after 24 hr by luciferase reporter gene assay; format: cell-based
T3 sequence (P49881 whole entry): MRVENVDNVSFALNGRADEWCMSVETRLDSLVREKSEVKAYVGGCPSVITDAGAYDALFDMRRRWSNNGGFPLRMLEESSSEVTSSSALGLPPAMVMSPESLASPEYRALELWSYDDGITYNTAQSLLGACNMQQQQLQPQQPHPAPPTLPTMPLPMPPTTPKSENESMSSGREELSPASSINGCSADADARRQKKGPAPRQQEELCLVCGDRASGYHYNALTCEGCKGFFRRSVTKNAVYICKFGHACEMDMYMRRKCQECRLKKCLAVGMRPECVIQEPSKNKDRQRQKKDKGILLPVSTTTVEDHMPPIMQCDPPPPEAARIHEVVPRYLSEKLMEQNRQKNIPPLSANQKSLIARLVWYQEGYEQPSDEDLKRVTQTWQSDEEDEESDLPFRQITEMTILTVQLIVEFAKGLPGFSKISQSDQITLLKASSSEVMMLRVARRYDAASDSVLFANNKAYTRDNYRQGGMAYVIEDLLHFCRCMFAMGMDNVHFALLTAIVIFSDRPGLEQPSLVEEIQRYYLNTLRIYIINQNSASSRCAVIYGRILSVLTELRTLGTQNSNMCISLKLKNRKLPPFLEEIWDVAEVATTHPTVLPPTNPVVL

[6] = target: T1, Ecdysone receptor (Drosophila melanogaster); assay: Agonist activity at ecdysone receptor in Drosophila melanogaster S2 cells at 100 uM after 24 hr by luciferase reporter gene assay relative to 20-hydroxyecdysone; format: cell-based
[7] = target: T1, Ecdysone receptor (Drosophila melanogaster); assay: Agonist activity at ecdysone receptor in Drosophila melanogaster S2 cells treated with ouabain for 24 hr prior to compound addition measured after 24 hr by luciferase reporter gene assay; format: cell-based
[8] = Cytotoxicity against Drosophila melanogaster S2 cells at 10 to 100 uM after 24 hr by CellTiter assay; format: cell-based; conditions: s2, 24 h
[9] = target: T1, Ecdysone receptor (Drosophila melanogaster); assay: Agonist activity at ecdysone receptor in Drosophila melanogaster S2 cells after 24 hr by luciferase reporter gene assay in presence of ouabain; format: cell-based
[10] = target: T1, Ecdysone receptor (Drosophila melanogaster); assay: Agonist activity at ecdysone receptor in Drosophila melanogaster Kc cells at 100 uM after 24 hr by luciferase reporter gene assay relative to 20-hydroxyecdysone
[11] = target: T1, Ecdysone receptor (Drosophila melanogaster); assay: as §1
[12] = target: T1, Ecdysone receptor (Drosophila melanogaster); assay: Agonist activity at ecdysone receptor in Drosophila melanogaster S2 cells at 1.33 uM after 24 hr by luciferase reporter gene assay relative to 20-hydroxyecdysone; format: cell-based
[13] = target: T1, Ecdysone receptor (Drosophila melanogaster); assay: Agonist activity at ecdysone receptor in Drosophila melanogaster S2 cells at 10 uM after 24 hr by luciferase reporter gene assay relative to 20-hydroxyecdysone; format: cell-based
[14] = target: Ecdysone receptor (Aedes aegypti) (UniProt P49880+Q9GSG8); assay: Agonist activity at Aedes aegypti ecdysone receptor expressed in mammalian cells by reporter gene assay relative to control; format: cell-based
Ecdysone receptor [15] = target: T4, Ecdysone receptor (Aedes aegypti, UniProt P49880+Q9GSG8); assay: Agonist activity at Aedes aegypti ecdysone receptor expressed in mammalian cells by reporter gene assay; format: cell-based
T4 sequence (P49880 whole entry): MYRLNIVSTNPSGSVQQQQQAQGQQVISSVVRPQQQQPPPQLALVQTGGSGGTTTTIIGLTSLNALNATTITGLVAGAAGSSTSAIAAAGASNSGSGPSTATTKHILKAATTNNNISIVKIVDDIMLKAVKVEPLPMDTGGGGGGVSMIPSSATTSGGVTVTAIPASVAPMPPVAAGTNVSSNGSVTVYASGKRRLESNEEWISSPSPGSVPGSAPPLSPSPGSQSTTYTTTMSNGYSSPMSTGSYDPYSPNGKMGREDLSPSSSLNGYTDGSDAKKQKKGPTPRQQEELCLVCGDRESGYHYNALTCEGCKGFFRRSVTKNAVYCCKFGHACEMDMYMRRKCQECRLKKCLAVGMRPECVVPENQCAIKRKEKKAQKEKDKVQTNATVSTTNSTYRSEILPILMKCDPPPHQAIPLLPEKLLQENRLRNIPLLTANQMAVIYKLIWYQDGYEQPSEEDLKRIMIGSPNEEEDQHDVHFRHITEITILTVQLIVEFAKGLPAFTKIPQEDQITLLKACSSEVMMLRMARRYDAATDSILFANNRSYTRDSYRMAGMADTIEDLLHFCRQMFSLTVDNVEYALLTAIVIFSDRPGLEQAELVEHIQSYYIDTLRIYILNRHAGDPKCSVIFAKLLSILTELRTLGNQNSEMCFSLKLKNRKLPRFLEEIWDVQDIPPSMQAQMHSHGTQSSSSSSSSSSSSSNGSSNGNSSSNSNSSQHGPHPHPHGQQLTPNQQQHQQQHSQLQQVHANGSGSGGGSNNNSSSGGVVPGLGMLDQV
T4 sequence (Q9GSG8 whole entry): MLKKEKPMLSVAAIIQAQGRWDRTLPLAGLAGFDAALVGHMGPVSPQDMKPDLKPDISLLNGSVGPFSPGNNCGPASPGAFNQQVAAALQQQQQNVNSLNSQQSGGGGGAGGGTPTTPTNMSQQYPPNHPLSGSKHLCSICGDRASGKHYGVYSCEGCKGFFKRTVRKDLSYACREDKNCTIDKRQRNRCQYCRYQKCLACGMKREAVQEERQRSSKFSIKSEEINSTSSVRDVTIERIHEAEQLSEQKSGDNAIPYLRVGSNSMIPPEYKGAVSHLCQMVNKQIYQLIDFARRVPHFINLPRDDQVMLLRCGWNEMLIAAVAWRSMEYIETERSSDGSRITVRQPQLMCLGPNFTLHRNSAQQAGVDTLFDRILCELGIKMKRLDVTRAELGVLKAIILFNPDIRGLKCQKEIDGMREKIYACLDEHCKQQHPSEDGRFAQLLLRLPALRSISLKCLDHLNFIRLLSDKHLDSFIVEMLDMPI

[16] = target: T5, Ecdysone receptor (Bombyx mori) (UniProt P49881); assay: as §2; format: cell-based
T5 sequence (whole entry): T3 sequence (P49881 whole entry)

[17] = target: T1, Ecdysone receptor (Drosophila melanogaster); assay: Agonist activity at ecdysone receptor in Drosophila melanogaster S2 cells at 50 uM after 24 hr by luciferase reporter gene assay relative to 20-hydroxyecdysone; format: cell-based

Compound: CC(C)(C)N(NC(=O)c1ccc(Br)cc1)C(=O)c1ccccc1Cl
- Efficacy [1]: 68%
- EC50 (Ecdysone receptor [2]): 2.82 µM
- Efficacy [3]: 56%
- EC50 (Ecdysone receptor [4]): 6.92 µM
- EC50 (Ecdysone receptor [5]): 0.0339 µM

Compound: COc1cccc(C(=O)NN(C(=O)c2cc(C)cc(C)c2)C(C)(C)C)c1C [METHOXYFENOZIDE]
- Efficacy [6]: 66%
- EC50 (Ecdysone receptor [2]): 16.6 µM
- Activity [7]: Active
- Activity [8]: Non-toxic
- EC50 (Ecdysone receptor [5]): 0.00603 µM
- Activity [9]: Active

Compound: CC(C)(C)N(NC(=O)c1c(F)cccc1F)C(=O)c1ccccc1Cl
- Efficacy [6]: 23%
- Efficacy [10]: 35%
- EC50 (Ecdysone receptor [4]): > 100 µM

Compound: Cc1ccc(C(=O)NN(C(=O)c2ccccc2Cl)C(C)(C)C)c(C)c1
- Efficacy [6]: 43%
- EC50 (Ecdysone receptor [2]): 129 µM
- Efficacy [10]: 29%
- pEC50 [11]: inactive
- EC50 (Ecdysone receptor [5]): 0.162 µM

Compound: Cc1cc(C)cc(C(=O)C2(NC(=O)c3ccc4c(c3C)CCCO4)CCCCC2)c1
- EC50 (Ecdysone receptor [2]): > 1.32 µM
- Efficacy [12]: 37%

Compound: CC(=O)c1ccc(C(=O)NN(C(=O)c2ccccc2Cl)C(C)(C)C)cc1
- Efficacy [6]: 7%
- Efficacy [3]: 3%
- EC50 (Ecdysone receptor [4]): > 100 µM

Compound: Cc1ccc(NC2CC(C)N(C(=O)c3ccc(C)cc3)c3ccc(C)cc32)cc1 (centres undefined)
- Efficacy [13]: 11%
- EC50 (Ecdysone receptor [2]): > 10 µM
- Efficacy [14]: 26%
- EC50 (Ecdysone receptor [15]): 5.01 µM
- pEC50 [16]: inactive

Compound: CCOc1ccccc1C(=O)N(NC(=O)c1ccc(CC)cc1)C(C)(C)C
- Efficacy [17]: 2%
- EC50 (Ecdysone receptor [2]): > 50.1 µM

Compound: CC(C)(C)N(NC(=O)c1ccc(I)cc1)C(=O)c1ccccc1Cl
- Efficacy [1]: 53%
- EC50 (Ecdysone receptor [2]): 7.08 µM
- EC50 (Ecdysone receptor [5]): 0.00759 µM

Compound: Cc1ccc(NC2CC(C)N(C(=O)c3ccc(Cl)cc3)c3ccc(C)cc32)cc1 (centres undefined)
- Efficacy [13]: 9%
- EC50 (Ecdysone receptor [2]): > 10 µM
- Efficacy [14]: 39%
- EC50 (Ecdysone receptor [15]): 2.14 µM
- pEC50 [16]: inactive
